Test results reported in patent publication US10562878B2, “Cycloalkylamines as monoamine reuptake inhibitors” (Sunovion Pharmaceuticals Inc., priority 2006, dated 2020).
pIC50: −log10 of the molar value. Where a name gives a salt, the structure may show the parent alone. Read-outs that look alike come from different tables or passages of the source.

How the values were obtained:
[1] = target: T1, Norepinephrine Transporter (NET) sites in mouse brain (Mus musculus (Mouse), UniProt O55192); assay: in vivo; details: po, read-out: NET % Transporter Occupancy
[2] = target: T1, Norepinephrine Transporter (NET) sites in mouse brain; details: mice, 60 min after treatment
[3] = target: DA Transporter (DAT) sites in mouse brain (Mus musculus (Mouse), UniProt Q61327); assay: Ex vivo [3H] WIN 35428 binding to DAT sites in mouse brain after oral dosing; details: mice, 60 min after treatment; for receptor occupancy at 1 mg/kg / receptor occupancy at 3 mg/kg / receptor occupancy at 10 mg/kg / receptor occupancy at 30 mg/kg: mouse
[4] = target: 5-HT Transporter (SERT) sites in mouse brain (Mus musculus (Mouse), UniProt Q60857); assay: Ex vivo [3H] citalopram binding to SERT sites in mouse brain after oral dosing; details: mice, 60 min after treatment; for receptor occupancy at 1 mg/kg / receptor occupancy at 3 mg/kg / receptor occupancy at 10 mg/kg / receptor occupancy at 30 mg/kg: mouse
[5] = target: human dopamine transporter (Homo sapiens (Human), UniProt Q01959); assay: Dopamine functional uptake assay, recombinant human transporter in CHO-K1 or HEK293 cells; assay type: cell-based; details: read-out: hDAT IC50
Sequence of human dopamine transporter (Q01959 whole entry): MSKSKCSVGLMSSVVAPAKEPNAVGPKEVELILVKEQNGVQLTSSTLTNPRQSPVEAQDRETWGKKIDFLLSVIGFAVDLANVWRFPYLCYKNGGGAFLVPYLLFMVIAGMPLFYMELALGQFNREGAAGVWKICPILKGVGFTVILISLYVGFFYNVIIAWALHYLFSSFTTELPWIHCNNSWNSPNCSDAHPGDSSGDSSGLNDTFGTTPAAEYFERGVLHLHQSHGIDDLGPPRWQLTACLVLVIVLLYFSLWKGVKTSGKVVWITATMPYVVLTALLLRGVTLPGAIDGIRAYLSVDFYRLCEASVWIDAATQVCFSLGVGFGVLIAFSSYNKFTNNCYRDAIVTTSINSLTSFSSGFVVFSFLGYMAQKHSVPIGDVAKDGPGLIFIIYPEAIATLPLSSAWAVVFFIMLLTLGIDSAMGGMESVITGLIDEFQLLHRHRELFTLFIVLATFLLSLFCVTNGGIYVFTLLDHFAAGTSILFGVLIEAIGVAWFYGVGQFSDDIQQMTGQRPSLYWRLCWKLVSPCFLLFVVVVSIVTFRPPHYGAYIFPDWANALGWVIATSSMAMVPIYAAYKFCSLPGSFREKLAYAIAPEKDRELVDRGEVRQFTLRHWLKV

mice = assay: Mouse tail suspension test; assay type: in vivo
Rats = assay: Rat forced swim test; assay type: in vivo
[6] = target: human serotonin transporter (Homo sapiens (Human), UniProt P31645); assay: Serotonin functional uptake assay, recombinant human transporter in HEK-293 cells; assay type: cell-based; details: Human serotonin transporter uptake; read-out: hSERT IC50
Sequence of human serotonin transporter (P31645 whole entry): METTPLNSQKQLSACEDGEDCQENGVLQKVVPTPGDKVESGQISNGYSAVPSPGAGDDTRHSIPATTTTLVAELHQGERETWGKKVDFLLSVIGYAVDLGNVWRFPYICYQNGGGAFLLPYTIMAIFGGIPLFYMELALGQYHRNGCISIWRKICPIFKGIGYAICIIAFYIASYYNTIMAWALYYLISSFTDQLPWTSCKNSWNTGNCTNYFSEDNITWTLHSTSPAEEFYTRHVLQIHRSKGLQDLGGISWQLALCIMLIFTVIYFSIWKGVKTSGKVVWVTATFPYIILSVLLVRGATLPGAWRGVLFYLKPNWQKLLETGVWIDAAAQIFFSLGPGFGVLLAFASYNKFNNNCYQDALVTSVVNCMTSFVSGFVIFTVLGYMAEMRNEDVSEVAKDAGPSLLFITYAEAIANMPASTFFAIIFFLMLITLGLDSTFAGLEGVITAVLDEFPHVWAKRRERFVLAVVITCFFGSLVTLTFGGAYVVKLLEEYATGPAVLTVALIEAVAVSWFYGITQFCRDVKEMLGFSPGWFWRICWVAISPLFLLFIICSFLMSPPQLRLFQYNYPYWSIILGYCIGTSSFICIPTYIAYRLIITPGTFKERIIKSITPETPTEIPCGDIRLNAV

Structure (SMILES) | receptor occupancy at 1 mg/kg [1] [%] | receptor occupancy at 3 mg/kg [1] [%] | receptor occupancy at 10 mg/kg [1] [%] | receptor occupancy at 30 mg/kg [1] [%] | NET Mean Specific Binding ± S.E.M. ([2]; 1 mg/kg PO) [dpm] | NET Mean Specific Binding ± S.E.M. ([2]; 3 mg/kg PO) [dpm] | NET Mean Specific Binding ± S.E.M. ([2]; 10 mg/kg PO) [dpm] | NET Mean Specific Binding ± S.E.M. ([2]; 30 mg/kg PO) [dpm] | DAT Mean Specific Binding ± S.E.M. ([3]; 3 mg/kg PO) [dpm] | DAT Mean Specific Binding ± S.E.M. ([3]; 10 mg/kg PO) [dpm] | DAT Mean Specific Binding ± S.E.M. ([3]; 30 mg/kg PO) [dpm] | receptor occupancy at 1 mg/kg ([3]; 1 mg/kg PO) [%] | receptor occupancy at 3 mg/kg ([3]; 3 mg/kg PO) [%] | receptor occupancy at 10 mg/kg ([3]; 10 mg/kg PO) [%] | receptor occupancy at 30 mg/kg ([3]; 30 mg/kg PO) [%] | SERT Mean Specific Binding ± S.E.M. ([4]; 1 mg/kg PO) [dpm] | receptor occupancy at 1 mg/kg ([4]; 1 mg/kg PO) [%] | pIC50 [5] | Mouse Tail Suspension Mean Immobility Time ± S.E.M. (mice; 30 mg/kg PO) | pIC50 [6] | also measured
CNCC1(c2ccc(Cl)c(Cl)c2)CCC(C)(O)CC1 (centres unmarked) [Compound 276, 4-(3,4-dichlorophenyl)-1-methyl-4-((methylamino)methyl)cyclohexanol] | -4 | -6 | -1 | 26 | 1602 ± 51 | 1631 ± 92 | 1553 ± 27 | 1138 ± 59 | 16312 ± 2396 | 15879 ± 2265 | 10397 ± 931 | -21 | -9 | -6 | 31 | 3743 ± 199 | 12 | 7.15 |  |  | SERT Mean Specific Binding ± S.E.M. ([4]; 3 mg/kg PO): 3685 ± 292 dpm; SERT Mean Specific Binding ± S.E.M. ([4]; 10 mg/kg PO): 3092 ± 207 dpm; SERT Mean Specific Binding ± S.E.M. ([4]; 30 mg/kg PO): 1558 ± 169 dpm; receptor occupancy at 3 mg/kg ([4]; 3 mg/kg PO): 14%; receptor occupancy at 10 mg/kg ([4]; 10 mg/kg PO): 28%; receptor occupancy at 30 mg/kg ([4]; 30 mg/kg PO): 64%
CN[C@H](C)C1(c2ccc(Cl)c(Cl)c2)CCCCC1 (stereo in doubt) [48 E1, 1-(1-(3,4-dichlorophenyl)cyclohexyl)-N-methylethanamine hydrochloride] | 12 | 21 | 60 | 86 | 2111 ± 119 | 1911 ± 144 | 954 ± 115 | 346 ± 55 | 18039 ± 1265 | 9792 ± 977 | 3173 ± 541 | -1 | 11 | 52 | 84 |  | -1 |  | 134.5 ± 9.6 |  | DAT Mean Specific Binding ± S.E.M. ([3]; 1 mg/kg PO): 20656 ± 1531 dpm; Mouse Tail Suspension Mean Immobility Time ± S.E.M. (mice; 10 mg/kg PO): 174.1 ± 5.8; Rat Forced Swim Climbing (Means ± S.E.M.) (Rats; 3 mg/kg PO): 7.1 ± 0.6; Rat Forced Swim Immobility (Means ± S.E.M.) (Rats; 3 mg/kg PO): 49.6 ± 1.5; Rat Forced Swim Swimming (Means ± S.E.M.) (Rats; 3 mg/kg PO): 3.7 ± 1.0; Rat Forced Swim Climbing (Means ± S.E.M.) (Rats; 10 mg/kg PO): 17.9 ± 2.5; Rat Forced Swim Immobility (Means ± S.E.M.) (Rats; 10 mg/kg PO): 35.6 ± 3.5; Rat Forced Swim Swimming (Means ± S.E.M.) (Rats; 10 mg/kg PO): 6.5 ± 1.6; Rat Forced Swim Climbing (Means ± S.E.M.) (Rats; 30 mg/kg PO): 20.6 ± 2.9; Rat Forced Swim Immobility (Means ± S.E.M.) (Rats; 30 mg/kg PO): 26.9 ± 4.4; Rat Forced Swim Swimming (Means ± S.E.M.) (Rats; 30 mg/kg PO): 9.7 ± 1.7
CN(C)CC1(c2ccc(Cl)c(Cl)c2)CCC(C)(O)CC1 (centres unmarked) [Compound 277, 4-(3,4-dichlorophenyl)-4-((dimethylamino)methyl)-1-methylcyclohexanol] | 6 | 18 | 47 | 71 | 950 ± 46 | 824 ± 30 | 533 ± 25 | 294 ± 42 | 34136 ± 4104 | 33230 ± 2807 | 31743 ± 4406 | 17 | 21 | 23 | 26 | 1508 ± 86 | -6 | 7.39 |  |  | DAT Mean Specific Binding ± S.E.M. ([3]; 1 mg/kg PO): 35827 ± 2302 dpm; SERT Mean Specific Binding ± S.E.M. ([4]; 3 mg/kg PO): 1491 ± 75 dpm; SERT Mean Specific Binding ± S.E.M. ([4]; 10 mg/kg PO): 1416 ± 43 dpm; SERT Mean Specific Binding ± S.E.M. ([4]; 30 mg/kg PO): 1384 ± 101 dpm; receptor occupancy at 3 mg/kg ([4]; 3 mg/kg PO): -5%; receptor occupancy at 10 mg/kg ([4]; 10 mg/kg PO): 0%; receptor occupancy at 30 mg/kg ([4]; 30 mg/kg PO): 3%
CC(N(C)C)C1(c2ccc3ccccc3c2)CCCCC1 (single isomer, unassigned) [56 E1, N,N-dimethyl-1-(1-(naphthalen-2-yl)cyclohexyl)ethanamine] | 20 | 52 | 86 | 98 | 616 ± 50 | 368 ± 17 | 106 ± 20 | 19 ± 2 | 42127 ± 2130 | 33478 ± 1779 | 14637 ± 1567 | 5 | 4 | 23 | 67 | 2625 ± 138 | 19 |  | 141.9 ± 7.4 |  | DAT Mean Specific Binding ± S.E.M. ([3]; 1 mg/kg PO): 41561 ± 1611 dpm; Mouse Tail Suspension Mean Immobility Time ± S.E.M. (mice; 10 mg/kg PO): 174.8 ± 6.1; Rat Forced Swim Climbing (Means ± S.E.M.) (Rats; 3 mg/kg PO): 7.1 ± 1.6; Rat Forced Swim Immobility (Means ± S.E.M.) (Rats; 3 mg/kg PO): 52.2 ± 1.6; Rat Forced Swim Swimming (Means ± S.E.M.) (Rats; 3 mg/kg PO): 0.3 ± 0.2; Rat Forced Swim Climbing (Means ± S.E.M.) (Rats; 10 mg/kg PO): 8.6 ± 0.9; Rat Forced Swim Immobility (Means ± S.E.M.) (Rats; 10 mg/kg PO): 50.7 ± 1.0; Rat Forced Swim Swimming (Means ± S.E.M.) (Rats; 10 mg/kg PO): 0.8 ± 0.3; Rat Forced Swim Climbing (Means ± S.E.M.) (Rats; 30 mg/kg PO): 17.9 ± 2.4; Rat Forced Swim Immobility (Means ± S.E.M.) (Rats; 30 mg/kg PO): 40.4 ± 2.7; Rat Forced Swim Swimming (Means ± S.E.M.) (Rats; 30 mg/kg PO): 1.0 ± 0.4; SERT Mean Specific Binding ± S.E.M. ([4]; 3 mg/kg PO): 1346 ± 109 dpm; SERT Mean Specific Binding ± S.E.M. ([4]; 10 mg/kg PO): 278 ± 42 dpm; SERT Mean Specific Binding ± S.E.M. ([4]; 30 mg/kg PO): 151 ± 60 dpm; receptor occupancy at 3 mg/kg ([4]; 3 mg/kg PO): 58%; receptor occupancy at 10 mg/kg ([4]; 10 mg/kg PO): 91%; receptor occupancy at 30 mg/kg ([4]; 30 mg/kg PO): 95%
CNCC1(c2ccc3ccccc3c2)CCCCC1 [Compound 93, N-methyl-1-(1-(naphthalen-2-yl)cyclohexyl)methanamine] |  |  |  |  |  |  |  |  |  |  |  |  |  |  |  |  |  |  | 162.0 ± 8.1 |  | Rat Forced Swim Climbing (Means ± S.E.M.) (Rats; 3 mg/kg PO): 9.0 ± 1.3; Rat Forced Swim Immobility (Means ± S.E.M.) (Rats; 3 mg/kg PO): 44.5 ± 2.5; Rat Forced Swim Swimming (Means ± S.E.M.) (Rats; 3 mg/kg PO): 6.5 ± 1.6; Rat Forced Swim Climbing (Means ± S.E.M.) (Rats; 10 mg/kg PO): 12.8 ± 2.2; Rat Forced Swim Immobility (Means ± S.E.M.) (Rats; 10 mg/kg PO): 41.4 ± 2.8; Rat Forced Swim Swimming (Means ± S.E.M.) (Rats; 10 mg/kg PO): 6.9 ± 1.3; Rat Forced Swim Climbing (Means ± S.E.M.) (Rats; 30 mg/kg PO): 22.2 ± 3.5; Rat Forced Swim Immobility (Means ± S.E.M.) (Rats; 30 mg/kg PO): 25.8 ± 5.4; Rat Forced Swim Swimming (Means ± S.E.M.) (Rats; 30 mg/kg PO): 12.0 ± 2.1
CN(C)C[C@]1(c2ccc3ccccc3c2)CCCC[C@H]1O (relative stereo) [164 E2, trans-2-((dimethylamino)methyl)-2-(naphthalen-2-yl)cyclohexanol] |  |  |  |  |  |  |  |  |  |  |  |  |  |  |  |  |  |  | 141.8 ± 6.0 |  | 
CNC[C@@]1(c2ccc(Cl)c(Cl)c2)CCCC[C@H]1C (racemic) [Compound 176, (±) cis-1-(1-(3,4-dichlorophenyl)-2-methylcyclohexyl)-N-methylmethanamine] |  |  |  |  |  |  |  |  |  |  |  |  |  |  |  |  |  | 6.11 |  | 6.27 | 
COc1ccc([C@@]2(CN(C)C)CCCC[C@H]2O)cc1 (single isomer, unassigned) [156 E1, trans-2-((dimethylamino)methyl)-2-(4-methoxyphenyl)cyclohexanol] |  |  |  |  |  |  |  |  |  |  |  |  |  |  |  |  |  | 5.88 |  | 7.12 | 
COc1ccc([C@@]2(CN(C)C)CCCC[C@H]2O)cc1 (single isomer, unassigned) [156 E2, trans-2-((dimethylamino)methyl)-2-(4-methoxyphenyl)cyclohexanol] |  |  |  |  |  |  |  |  |  |  |  |  |  |  |  |  |  | 5.40 |  | 6.19 | 
CN(C)C[C@]1(c2ccc(C(F)(F)F)cc2)CCCC[C@H]1O (single isomer, unassigned) [160 E2, trans-2-((dimethylamino)methyl)-2-(4-(trifluoromethyl)phenyl)cyclohexanol] |  |  |  |  |  |  |  |  |  |  |  |  |  |  |  |  |  | < 5.00 |  | 5.29 | 
